Experimental findings from US5527821A, “Pharmacologically active alpha-[tertiary-aminomethyl]-benzenemethanol derivatives” (Pharmacia AB, priority 1992, dated 1996) are described below.

Data set [1] deals with isolated rabbit urethra. As to the kind of experiment: Effects on the isolated rabbit urethra (contraction, in vitro). The class given is cell-based. As to conditions: Krebs solution, 37° C.; for Emax / Urethra, in vitro: Max. contraction: cumulative addition (12 concentrations), reference noradrenaline 6×10^-5 M; for EC50: cumulative addition. As to the method:
(§1) Female rabbits weighing 2.5-3.0 kg were sacrificed and exsanguinated. The urethra and portal vein were dissected out and suspended in organ baths containing oxygenated Krebs solution at 37° C. Two rings of urethra (4 mm broad) and two longitudinal strips of the portal vein were used. The basal tension was adjusted to about 10 mN after an equilibration time of 60 minutes. Isometric tension was recorded via a force transducer (Statham FT03) and registered on a Grass polygraph model 7.
(§2) Submaximum concentrations of noradrenaline (6×10^-5 M) were used to achieve reference contractions.
(§3) The test substances were added cumulatively (12 concentrations) until a maximum response was obtained.

Data set [2] relates to isolated rabbit portal vein. The data set is described as follows: Effects on the isolated rabbit portal vein (contraction, in vitro). As to conditions: for EC50 / Emax: Oryctolagus cuniculus; for EC50: read-out: Portal vein, in vitro: EC50 value (effective concentration inducing a half maximum contraction); for Portal vein, in vitro: Max. contraction / Emax: cumulative addition (12 concentrations), reference noradrenaline 6×10^-5 M. Format: cell-based. As to the method:
as §1, §2, §3

In data set [3] the test system is urethra (urethral pressure in anaesthetized rabbits). As to the kind of experiment: Effects on urethral pressure in anaesthetized rabbits. Format: in vivo, rabbit. As to conditions: reference noradrenaline 0.025 μg/kg i.v. As for the experimental part:
(§4) Rabbits, weighing 2.5-3 kg, were anaesthetized by pentobarbitone (initially 40 mg/kg i.v. and for maintenance anaesthesia 10 mg/kg, h). For recording of urethral pressure a catheter (Dog cath nr 6.) was inserted into the urethra and placed at the point of highest pressure. The basal urethral pressure was approximately 10 cm H2 O. The blood pressure was recorded via a catheter (PP50) inserted into a femoral artery. Substances were injected intravenously into a catheter in a femoral vein. The continuous intravenous infusion of pentobarbitone kept the depth of anesthesia at a constant level through the experiment. Three consecutive noradrenaline injections (0.025 μg/kg i.v.) were given initially to constitute reference responses. Repeated intravenous injections of different doses of the same test compound were given in a randomized manner. […] In other pharmacological experiments (not described here) it was also shown that the described compounds had no or minimal effect on other organs, such as for example the urinary bladder, central nervous system, intestine, vas deferens etc.

Data set [4] relates to blood pressure in anaesthetized rabbits. As to the kind of experiment: Effects on blood pressure in anaesthetized rabbits. Format: in vivo, rabbit. As to conditions: i.v. injections of different doses, femoral artery catheter. As to the method:
as §4

The mark [5] stands for this setting: Oryctolagus cuniculus, read-out: Urethra, in vitro: Max. contraction, female rabbit urethra rings.
Setting [6] is: read-out: Urethra, in vitro: EC50-value (effective concentration inducing a half maximum contraction), female rabbit urethra rings.
Where [7] appears, read: female rabbit portal vein longitudinal strips, Krebs solution, 37° C.
The mark [8] stands for this setting: anaesthetized rabbits, i.v. injections of different doses.
Where [9] appears, read: Oryctolagus cuniculus, read-out: Urethra, in vitro: EC50-value (effective concentration inducing a half maximum contraction), female rabbit urethra rings.
The mark [10] stands for this setting: read-out: Portal vein, in vitro: Max. contraction, female rabbit portal vein longitudinal strips, Krebs solution, 37° C.
Where [11] appears, read: Oryctolagus cuniculus, iv, read-out: Max. urethral pressure in vivo, in % of NA-max, anaesthetized rabbits, i.v. injections of different doses.
[12] abbreviates: Oryctolagus cuniculus, female rabbit urethra rings, read-out: Urethra, in vitro: Max. contraction.
[13] abbreviates: Oryctolagus cuniculus, female rabbit urethra rings, read-out: Urethra, in vitro: EC50-value (effective concentration inducing a half maximum contraction).
Setting [14] is: female rabbit portal vein longitudinal strips, Krebs solution, 37° C., read-out: Portal vein, in vitro: Max. contraction.
The mark [15] stands for this setting: female rabbit portal vein longitudinal strips, cumulative addition, Krebs solution, 37° C.
[16] abbreviates: Oryctolagus cuniculus, iv, anaesthetized rabbits, i.v. injections of different doses, read-out: Max. urethral pressure in vivo, in % of NA-max.

Structures can show the parent of a compound that is named as a salt. Where two headings read alike, the source gives them in different places.

On to `COc1cccc(C(O)CN(C)C)c1OC(C)C` (single isomer, unassigned) [Compound 6:3, (+)-α-[(dimethylamino)methyl]-3-methoxy-2-(1-methylethoxy)-benzenemethanol], for which the Emax in data set [1] (setting [5]) turned out to be 106%. Further, the EC50 in data set [1] (setting [6]) came out at 6.5 µM; in data set [2] it was 120 µM. For the same molecule, in data set [2] (setting [7]), the “Portal vein, in vitro: Max. contraction” value is on record as 34 % of NA-max. The “Max. urethral pressure in vivo, in % of NA-max” value in data set [3] (setting [8]) is listed as 288 % of NA-max. Moreover, in data set [4], the “Blood pressure; max change, in %” value was 14%.
With `COc1cccc(C(O)CN(C)C)c1SC(C)C` (stereo not drawn) [Compound 14, α-[(Dimethylamino)methyl]-3-methoxy-2-(1-methylethylthio)-benzenemethanol, hydrochloride], the EC50 in data set [1] (setting [9]) turned out to be 11 µM. Moreover, the values for the Emax in data set [1] (setting [5]) and in data set [2] (setting [10]) were 67% and 5%, respectively.
For `CC(C)Sc1c(Cl)cccc1C(O)CN(C)C` (stereo not drawn) [Compound 13, 3-Chloro-α-[(dimethylamino)methyl]-2-(1-methylethylthio)-benzenemethanol, hydrochloride], in that order: 77 µM, 45% and 4%.
For the molecule `CCOc1c(Cl)cccc1C(O)CN(C)C.Cl` (stereo not drawn) [Compound 2, 3-Chloro-α-[(dimethylamino)methyl]-2-ethoxy-benzenemethanol, hydrochloride], the EC50 in data set [1] (setting [9]) was 18 µM; in data set [2], 6.7 µM. Besides, the Emax in data set [1] (setting [5]) was 105%; in data set [2] (setting [10]) it was 22%; in data set [3] (setting [11]) it was 123%. For the same molecule, the “Blood pressure; max change, in %” value in data set [4] is reported as 9%.
In the case of `COc1cccc(C(O)CN(C)C)c1OC(C)C` (stereo not drawn) [Compound 4, α-[(Dimethylamino)methyl]-3-methoxy-2-(1-methylethoxy)-benzenemethanol, hydrogen oxalate], the EC50 worked out at 5.7 µM in data set [1] (setting [9]) and 87 µM in data set [2]. In addition, the Emax in data set [1] (setting [5]) came out at 95%; in data set [2] (setting [10]), 35%; in data set [3] (setting [11]), 211%. The “Blood pressure; max change, in %” value in data set [4] is given as 10%.
Consider `CC(C)Oc1c(C(O)CN(C)C)cccc1[N+](=O)[O-]` (stereo not drawn) [Compound 12, α-[(Dimethylamino)methyl]-2-(1-methylethoxy)-3-nitro-benzenemethanol, hydrochloride], for which the EC50 was determined as 11 µM in data set [1] (setting [9]) and 17 µM in data set [2]. The Emax in data set [1] (setting [5]) turned out to be 80%; in data set [2] (setting [10]), 18%.
`CC=COc1c(OC)cccc1C(O)CN1CCCC1.O=C(O)C(=O)O` (stereo not drawn) [Compound 8, 3-Methoxy-2-(1-propenyloxy)-α-pyrrolidinomethyl-benzenemethanol, hydrogen oxalate]: the “Urethra, in vitro: Max. contraction” value in data set [1] (female rabbit urethra rings) is recorded as 52 % of NA-max. In addition, the EC50 in data set [1] (female rabbit urethra rings, read-out: Urethra, in vitro: EC50-value (effective concentration inducing a half maximum contraction)) was found to be 190 µM. The “Portal vein, in vitro: Max. contraction” value in data set [2] (setting [7]) is 0 % of NA-max.
Consider `C=CCOc1c(OC)cccc1C(O)CN(C)C` (stereo not drawn) [Compound 15, α-[(Dimethylamino)methyl]-3-methoxy-2-(2-propenyloxy)-benzenemethanol, hydrogen oxalate], for which the EC50 worked out at 47 µM in data set [1] (setting [9]) and 90 µM in data set [2]. Besides, the Emax in data set [1] (setting [5]) amounted to 104%; in data set [2] (setting [10]), 11%.
In the case of `Cc1cccc(C(O)CN(C)C)c1OC(C)C` (stereo not drawn) [Compound 1, α-[(Dimethylamino)methyl]-2-(1-methylethoxy)-3-methyl-benzenemethanol, hydrochloride], the EC50 in data set [1] (setting [9]) and in data set [2] was 24 µM in each case. Further, the Emax in data set [1] (setting [5]) is 85%; in data set [2] (setting [10]) it was 47%.
As for `COc1cccc(C(O)CN(C)C)c1OC(C)C` (single isomer, unassigned) [Compound 6:4, (-)-α-[(dimethylamino)methyl]-3-methoxy-2-(1-methylethoxy)-benzenemethanol], the “Urethra, in vitro: Max. contraction” value in data set [1] (female rabbit urethra rings) is reported as 88 % of NA-max. In data set [1] (setting [6]), the EC50 is 61 µM. Also, the “Portal vein, in vitro: Max. contraction” value in data set [2] (setting [7]) is 8 % of NA-max. The “Max. urethral pressure in vivo, in % of NA-max” value in data set [3] (setting [8]) is listed as 150 % of NA-max. The “Blood pressure; max change, in %” value in data set [4] is 11%.
Regarding `CC(N)C(O)c1ccccc1` (stereo not drawn) [PPA, phenylpropanolamine, reference compound], the values for the EC50 in data set [1] (setting [9]) and in data set [2] were 200 µM and 70 µM, respectively. For the same molecule, the Emax in data set [1] (setting [5]) was 60%; in data set [2] (setting [10]) it was 67%; in data set [3] (setting [11]), 99%. In addition, in data set [4], the “Blood pressure; max change, in %” value is reported as 72%.
In the case of `CCN(C)CC(O)c1cccc(Cl)c1OC(C)C.Cl` (stereo not drawn) [Compound 11, 3-Chloro-α-[(N-ethyl-N-methylamino)methyl]-2-(1-methylethoxy)-benzenemethanol, hydrochloride], the figures for the EC50 in data set [1] (setting [9]) and in data set [2] were 5.3 µM and 4.5 µM, respectively. The Emax in data set [1] (setting [5]) stood at 100%; in data set [2] (setting [10]) it was 54%; in data set [3] (setting [11]) it was 210%. Moreover, the “Blood pressure; max change, in %” value in data set [4] turned out to be 34%.
`NC[C@H](O)c1ccc(O)c(O)c1` [Noradrenaline, noradrenaline, reference compound]: the Emax in data set [1] (setting [12]) and in data set [2] (setting [14]) was 100% each time. For the same molecule, the results for the EC50 in data set [1] (setting [13]) and in data set [2] (setting [15]) were 16 µM and 5.3 µM, respectively. Further, in data set [3] (setting [16]), the Emax at 2.5e-05 mg/kg came out at 100%.
With `COc1cccc(C(O)CN2CCCC2)c1OC(C)C` (stereo not drawn) [Compound 5, 3-Methoxy-2-(1-methylethoxy)-α-pyrrolidinomethyl-benzenemethanol, hydrochloride], the Emax is 68% in data set [1] (setting [12]) and 6% in data set [2] (setting [14]). Moreover, the EC50 in data set [1] (setting [13]) was 110 µM.
For the molecule `CC(C)Oc1c(Cl)cccc1C(O)CN(C)C` (single isomer, unassigned; (+)) [Compound 6:2, (+)-3-chloro-α-[(dimethylamino)methyl]-2-(1-methylethoxy)-benzenemethanol], the “Urethra, in vitro: Max. contraction” value in data set [1] (female rabbit urethra rings) is 107 % of NA-max. Also, the results for the EC50 in data set [1] (setting [6]) and in data set [2] were 4.5 µM and 17 µM, respectively. Besides, the “Portal vein, in vitro: Max. contraction” value in data set [2] (setting [7]) was 15 % of NA-max.
For `CCN(CC)CC(O)c1cccc(Cl)c1OC(C)C` (stereo not drawn) [Compound 10, 3-Chloro-α-[(diethylamino)methyl]-2-(1-methylethoxy)-benzenemethanol, hydrogen oxalate], the EC50 was determined as 12 µM in data set [1] (setting [9]) and 11 µM in data set [2]. Besides, the Emax was 81% in data set [1] (setting [5]) and 28% in data set [2] (setting [10]).
Take `CC(C)Oc1c(Cl)cccc1C(O)CN(C)C.Cl` (stereo not drawn) [Compound 9, 3-Chloro-α-[(dimethylamino)methyl]-2-(1-methylethoxy)-benzenemethanol, hydrochloride]: the figures for the EC50 in data set [1] (setting [9]) and in data set [2] were 11 µM and 60 µM, respectively. The Emax in data set [1] (setting [5]) is 79%; in data set [2] (setting [10]) it was 22%; in data set [3] (setting [11]), 192%. Besides, in data set [4], the “Blood pressure; max change, in %” value came out at 14%.
As for `CC(C)Oc1c(Cl)cccc1C(O)CN1CCCC1` (stereo not drawn) [Compound 7, 3-Chloro-2-(1-methylethoxy)-α-pyrrolidinomethyl-benzenemethanol, hydrogen oxalate], the values for the Emax in data set [1] (setting [12]), in data set [2] (setting [14]) and in data set [3] (setting [16]) were 73%, 14% and 189%, respectively. The EC50 in data set [1] (setting [13]) came to 12 µM; in data set [2] (setting [15]), 41 µM. Also, in data set [4], the “Blood pressure; max change, in %” value is -3%.
Regarding `CC(C)Oc1c(Cl)cccc1C(O)CN(C)C` (single isomer, unassigned; (-)) [Compound 6:1], the “Urethra, in vitro: Max. contraction” value in data set [1] (female rabbit urethra rings) is recorded as 69 % of NA-max. Further, the EC50 in data set [1] (setting [6]) came to 21 µM. For the same molecule, the Emax in data set [2] (setting [10]) worked out at 9%.
